From patent US20240393694A1, “METAL CONTAINING PHOTORESIST DEVELOPER COMPOSITION, AND METHOD OF FORMING PATTERNS INCLUDING STEP OF DEVELOPING USING THE COMPOSITION” (SAMSUNG SDI CO., LTD., priority 2023, published 2024)

Assay: pKa of the sulfonimide-based compound (Table 1)

pKa | Structure (SMILES)
9.5 | O=C1CCC(=O)N1 [Succimide]
8.3 | O=C1NC(=O)c2ccccc21 [Phthalimide]
